Data set [1] relates to human liver organoids (HLOs). In words: generation of neural crest cells and sympathetic neurons in HLOs (real-time PCR, whole mount immunostaining, flow cytometry). Type of data set: cell-based. (Quantitative PCR measures a nucleic acid by following its amplification.)
Data set [2] has as its system human liver organoids (HLOs). As to the kind of experiment: albumin (ALB) secretion of HLOs. It counts as cell-based.
In data set [3] the test system is HLO derived from two different iPS lines. In words: amount of TH+ cells in OA-treated HLO (NASH model). Type of data set: cell-based, human. As to conditions: OA treatment. The source says: FIG. 25 depicts the effect of OA treatment in increasing the amount of TH+ cells in HLO derived from two different iPS lines, showing an increase in innervation in a NASH model.
• 1. The distribution of sympathetic nerves projected to the liver is very different in humans as compared to experimental model animals, such as mice and rats. The presently described sympathetic neuron-containing human liver organoid model is expected to elucidate the distinctive mechanisms and timing of intrahepatic sympathetic projections during human liver development. • 2. Although it has been reported that sympathetic nerves contribute to the development and function of multiple organs, little is known regarding sympathetic nerves in the liver. This model leads to the identification of sympathetic effects on human liver development and the elucidation of their mechanisms of action. The model can also enable construction of enhanced (or mature) liver organoids by artificially regulating sympathetic nerve activity. • 3. The sympathetic nervous system has been reported to regulate gluconeogenesis in humans, but the mechanism by which it is promoted is unknown. Using this model, the mechanisms of human hepatic sympathetic innervation in gluconeogenesis can be elucidated. • 4. […] This model will allow us to identify the role of sympathetic nerves and their mechanisms in liver diseases. […]

In data set [4] the test system is hepatocytes of human liver organoids. In words: TG accumulation in hepatocytes of organoids, live cell imaging with BODIPY 493/503. Type of data set: cell-based. Here is the method: Next, it was determined whether sympathetic neurons, or sympathetic nerves, in human liver organoids contribute to lipid accumulation in hepatocytes. After treatment with 6-OHDA, triglyceride (TG) in hepatocytes of the organoids were measured by live cell imaging using BODIPY 493/503, a fluorescent probe for TG, and the accumulation of TG in hepatocytes of 6-OHDA-treated and untreated organoids was compared. TG accumulation in hepatocytes of 6-OHDA-treated organoids was about twice that of untreated organoids (FIG. 8A). In addition, TG accumulation in hepatocytes of organoids treated with 6-OHDA and then exposed to oleic acid (OA) for 3 days was about 3-fold higher than that of OA-only treated organoids (FIG. 8A).

Data set [5] relates to adrenergic receptor signaling. As to the kind of experiment: intracellular cAMP levels in human liver organoids. Type of data set: cell-based. As to conditions: compared to untreated organoids.
Procedure: The sympathetic neurons, or sympathetic nerves, in human liver organoids were ablated by 6-hydroxydopamine (6-OHDA), a sympathetic-specific toxin, and the intracellular levels of cyclic AMP (CAMP), a second messenger of adrenergic receptors in human liver organoids, were measured.
The next data set concerns human liver organoids. As to the kind of experiment: RT-qPCR of gluconeogenesis, lipogenesis and cytokine genes in liver organoids. It counts as cell-based.
The subject of data set [6] is human liver organoids (HLOs). As to the kind of experiment: immunostaining and cell volume analysis of TUBB3+ and TH+ nerves in HLOs. It counts as cell-based. Here is the method:
Single cell RNA sequencing (scRNAseq) and real-time PCR quantification of gene expression were performed in day 20 (D20) liver organoids, and it was noted that the neuron attractive factor BDNF was highly expressed in hepatic stellate-like cells of the liver organoids. (FIG. 13). HLOs were treated with and without 1 μM BDNF inhibitor ANA12 for 5 days from day 15 (D15) to day 20 (D20) of differentiation induction. […] (FIG. 14). […] HLOs were treated with and without 100 nM of BDNF for 13 days from day 15 (D15) to day 28 (D28) of differentiation induction.

In data set [7] the test system is human liver organoids (HLOs). As to the kind of experiment: generation of neural crest cells and sympathetic neurons in HLOs (real-time PCR, whole mount immunostaining, flow cytometry). Type of data set: cell-based. Here is the method:
(§1) Foregut spheroids were treated with 250 nM, 500 nM, or 1000 nM of the BMP inhibitor LDN193189 for 72 hours from day 3 (D3) to day 6 (D6) of differentiation, and real-time PCR quantification was performed on D6. […] (FIG. 12). […] (FIG. 15A).
The source holds these as a separate data set.

The next data set has as its system foregut spheroids. In words: real-time PCR of neural crest markers in foregut spheroids. It counts as cell-based, human. As to conditions: 250 nM, 500 nM, or 1000 nM for 72 hours D3 to D6, PCR on D6. Here is the method:
as §1

Data set [8] deals with human liver organoids (HLOs). As to the kind of experiment: gene expression of liver markers / liver induction in HLOs. It counts as cell-based.
[9] abbreviates: SB alone, 10 μM, days 3-6, listed as SB.
The mark [10] stands for this setting: RT-qPCR, 6-OHDA treated organoids vs control.
The mark [11] stands for this setting: steatosis conditions (oleic acid), relative to those not treated with 6-OHDA.

On to `NC(=O)c1ccc(-c2nc(-c3ccc4c(c3)OCO4)c(-c3ccccn3)[nH]2)cc1` [SB431542], for which the “neural crest cells and TUBB3/TH+ neurons detected” value in data set [1] (10 μM SB431542 with 250 nM LDN193189, days 3-6) is “detected earlier (day 15) and more frequently than in the other conditions”. For the same molecule, the “TUBB+/TH+ sympathetic innervation” value in data set [1] (SB431542 in addition to LDN, Day 3-Day 6, LDN alone had not yet developed innervation on day 15) was “extensive TUBB+/TH+ sympathetic innervation was formed around day 15”. In data set [1] (SB alone, 10 μM, days 3-6), the TH signal entry is given as “no TH signal was observed”, the “TUBB3-positive cells / TUBB3+ innervation” value is recorded as “appeared” and the “expression of the parasympathetic marker CHAT” value is “detected in some TUBB3+ nerves”. In addition, in data set [1] (setting [9]), the “TUBB3-positive cells / TUBB3+ innervation” value is “observed” and the “expression of the parasympathetic marker CHAT” value is “detected in some cells”. Besides, the albumin secretion result in data set [2] (SB431542 (10 μM) in addition to LDN (250 nM), days 3-6) is on record as “minimal”.
Consider `Cc1c[nH]c(-c2cnc(NCCNc3ccc(C#N)cn3)nc2-c2ccc(Cl)cc2Cl)n1` [CHIR], for which the “TUBB3+ neurons and SOX10 neural crest cells compared to LDN alone” value in data set [1] (3 μM CHIR instead of 2 μM, with 250 nM LDN, days 3-6) is “more and More”.
Take `CCCCCCCC/C=C\CCCCCCCC(=O)O` [OA, oleic acid]: in data set [3], the “amount of TH+ cells in HLO” value was “increasing”.
On to `NCCc1cc(O)c(O)cc1O` [6-OHDA, 6-hydroxydopamine], for which the “TG accumulation in hepatocytes” value in data set [4] (6-OHDA then oleic acid (OA) for 3 days, vs OA-only treated organoids) is recorded as “about 3 fold”. Moreover, the “TG accumulation in hepatocytes” value in data set [4] (6-OHDA-treated vs untreated organoids) is “about twice”. For the same molecule, the “concentration of cAMP” value in data set [5] is given as “significantly decreased”. Besides, in the data set with human liver organoids (setting [10]), the “expression of CD36” value is given as “increased expression”, the “expression of G6PC” value is reported as “increased expression”, the “expression of PCK1” value is given as “increased expression” and the “expression of SCD” value was “increased expression”. Further, in the data set on human liver organoids (setting [11]), the “expression of CXCL8 (IL8)” value was “increased expression” and the “expression of TNF” value is “increased expression”.
In the case of `O=C(Nc1ccccc1C(=O)NC1CCCCNC1=O)c1cc2ccccc2s1` (centres unmarked) [ANA12], in data set [6] (1 μM for 5 days, D15 to D20), the “TH+ nerve production and elongation of nerves” value is “suppressed TH+ nerve production and elongation of nerves”.
`NC[C@H](O)c1ccc(O)c(O)c1` [noradrenaline]: in [5], the “concentration of cAMP” value is “increased”.
In the case of `c1ccc2c(-c3cnn4cc(-c5ccc(N6CCNCC6)cc5)cnc34)ccnc2c1` [LDN193189], the detection of neurons entry in data set [1] (250 nM LDN193189 alone or in combination with 10 μM SB431542, days 6-10, rate varies between batches) is “sometimes detected”. Further, the “expression of autonomic marker ASCL1” value in [1] (HLOs on day 20, treated days 3-6, real-time PCR) is given as “increased”. Also, the “frequency of sympathetic generation” value in [1] (addition Day 6-10) is on record as “varies between batches”. Moreover, the “neural crest cells and TUBB3/TH+ neurons detected” value in data set [7] (250 nM, days 3-6) is listed as “high frequency”. The “induction of neural crest cells and TH/TUBB+ sympathetic neurons” value in [7] (250 nM, days 3 to 6) was “optimal concentrations”. In addition, the “induction of neural crest cells and TH/TUBB+ sympathetic neurons” value in [7] (500 nM, days 3 to 6) is reported as “optimal concentrations”. In addition, in data set [7] (1000 nM, days 3 to 6), the “TH/TUBB+ sympathetic neurons” value is given as “reduced” and the “production of neural crest cells” value was “reduced”. For the same molecule, the “creation of sympathetic neurons, or sympathetic nerves” value in data set [7] (LDN 250 (nM)) is on record as “reproducibly”. In addition, in the data set with foregut spheroids, the “expression of neural crest marker FOXD3” value was “increased expression”, the “expression of neural crest marker NGFR” value is “increased expression” and the “expression of neural crest marker SOX10” value is reported as “increased expression”. Moreover, the ALB secretion lower result in [2] (250 nM LDN193189 alone or in combination with 10 μM SB431542, days 6-10) is reported as “about ⅓”. Moreover, in data set [2] (250 nM, days 3-6), the ALB secretion entry is reported as “reduced” and the “albumin secretion compared to existing HLOs” value is reported as 30-40 fold lower. For the same molecule, the “reduction of albumin secretion compared to conventional HLOs” value in data set [2] (addition Day 6-10) is “a third”. For the same molecule, in [8] (250 nM, 500 nM, 1000 nM), the “gene expression level of liver marker HNF4A” value is given as “decrease in a LDN concentration-dependent manner” and the “gene expression level of liver marker albumin (ALB)” value is “decrease in a LDN concentration-dependent manner”. In [8] (250 nM, days 3-6), the “gene expression of liver marker ALB” value is reported as “reduced” and the “gene expression of liver marker HNF4A” value is reported as “reduced”. Moreover, the “induction to the liver” value in data set [8] (timing of addition changed from Day 3-6 to Day 6-10) is given as “improves induction to the liver”.
With `CC(C)NCC(O)c1ccc(O)c(O)c1` (centres unmarked) [isoproterenol], the “concentration of cAMP” value in data set [5] is recorded as “increased”.

B1: BDNF: brain derived neurotrophic factor, neuron attractive factor (protein, UniProt P23560 19-247, looked up)
Neurotrophic factor BDNF …: APMKEANIRGQGGLAYPGVRTHGTLESVNGPKAGSRGLTSLADTFEHVIEELLDEDQKVRPNEENNKDADLYTSRVMLSSQVPLEPPLLFLLEEYKNYLDAANMSMRVRRHSDPARRGELSVCDSISEWVTAADKKTAVDMSGGTVTVLEKVPVSKGQLKQYFYETKCNPMGYTKEGCRGIDKRHWNSQCRTTQSYVRALTMDSKKRIGWRFIRIDTSCVCTLTIKRGR
For the molecule B1, the “nerves (TUBB3 immunostaining)” value in [6] (100 nM for 13 days, D15 to D28) was “nerves tend to increase and elongate”.
